Tested on: subjects with RRMS
Experiment: BRAVO phase III trial: laquinimod vs placebo and Interferon β-1a (Avonex) reference arm
Assay type: in vivo, human
Experimental: A multinational, multicenter, randomized, parallel-group, clinical trial is performed in subjects with RRMS (“BRAVO”).
Interferon β-1a (Avonex®) 30 mcg intramuscular injection once weekly (400 subjects).
During the study, the following assessments are performed (regardless of the treatment assignment) at the specified time points: • 1. Vital signs (temperature, pulse, blood pressure) are measured at each study visit. • 2. A physical examination is performed at months −1 (screening), (baseline) 1, 3, 6, 12, 18 and 24 (termination/early discontinuation). • 3. The following safety clinical laboratory tests are performed: • a. Hematology and Complete blood count (CBC) with differential—at all scheduled visits. A reticulocyte count is added to the CBC at months 0 (baseline) and 24 (termination/early discontinuation) as well as in occasions of significant decrease in hemoglobin. • b. Serum chemistry (including electrolytes, liver enzymes, direct and total bilirubin, CPK and pancreatic amylase), and urinalysis—at all scheduled visits. • c. Serum TSH, T3 and Free T4 are measured at months 0 (baseline), 6, 12, 18 and 24 (termination/early discontinuation). • d. A rapid urine β-hCG test is performed in women of child-bearing potential at baseline (month 0; all subjects) and at each scheduled study visit thereafter (at site; only subjects assigned to oral treatment). • e. β-hCG in women of child-bearing potential are performed at each study visit. • f. Starting after visit Month 3 a rapid urine β-hCG test is performed in women of child-bearing potential (only those assigned to oral treatment) every 28 (±2) days. The subject is contacted by telephone with 72 hours after the test is scheduled to be performed and asked specific questions regarding the test. In case of suspected pregnancy (positive urine β-hCG test result), the caller makes sure that the study drug has been discontinued and the subject is instructed to arrive to the site as soon as possible with all study drugs. • 4. Markers of inflammation (serum conventional C-reactive protein and fibrinogen) are measured at all scheduled visits. • 5. […] These samples are collected at months 0, 12 and 24. • 6. […] In case of suspected thrombotic event, the subject is requested to arrive at the site immediately for further evaluation. […] ECG is performed at months −1 (screening; additional recording, up to 30 minutes apart are performed if QTc is >450 msec), 0 (baseline; three recordings, 15 minute apart), 1, 2, 3, 6, 12, 18 and 24 (termination/early discontinuation). • 8. Chest X-ray is performed at month −1 (screening) (if not performed within 6 months prior to screening visit). • 9. Adverse Events (AEs) are monitored throughout the study and recorded. • 10. Concomitant medications are monitored throughout the study. • 11. Neurological evaluations, including Neurostatus [Functional Systems (FS), Expanded Disability Status Scale (EDSS; Converted scale), Ambulation Index (AI)] and Timed-25 foot walk test are performed at months −1 (screening), 0 (baseline) and every 3 months thereafter, until termination/early discontinuation. (At screening visit, the Timed-25 foot walk test is performed 3 times, for practicing purposes, as a part of the MSFC). • 12. MS Functional Composite (MSFC) is assessed at months −1 (screening) (three practices for training purposes only), 0 (baseline), 6, 12, 18 and 24 (termination/early discontinuation). • 13. The general health status is assessed by the EuroQoL (EQ5D) questionnaire at months 0 (baseline) and 24 (termination/early discontinuation). • 14. The general health status and quality of life parameters are assessed by the Short-Form general health survey (SF-36) subject-reported questionnaire at month 0 (baseline) and every 6 months thereafter until termination/early discontinuation, inclusive. • 15. Subject-reported fatigue is assessed by the Modified Fatigue Impact Scale (MFIS) at months 0 (baseline), 2, 6, 12, 18 and 24 (termination/early discontinuation). • 16. […]

[1] = 0.6 mg daily oral compared to weekly 30 mcg Interferon β-1a (Avonex)

Question: For `CCN(C(=O)c1c(O)c2c(Cl)cccc2n(C)c1=O)c1ccccc1` [Laquinimod, laquinimod], which “Accumulation of physical disability (MSFC score, time to confirmed progression of EDSS)” value (0.6 mg daily oral) is on record?
Answer: Its value is “reduces the accumulation of physical disability”.

Question: And the “Brain atrophy (percent brain volume change from baseline to end of treatment)” value (0.6 mg daily oral)?
Answer: Its value is “reduces brain atrophy”.

Question: What about the “Fatigue (MFIS)” value (0.6 mg daily oral) of the same molecule?
Answer: The value was “reduces the fatigue”.

Question: What about the “General health status (SF-36)” value (0.6 mg daily oral) of the same molecule?
Answer: Its value is “improves the general health status”.

Question: And the “Prevention or delay of relapses” value (0.6 mg daily oral)?
Answer: The value was “prevents or delays relapses”.

Question: And the “Quality of life (EuroQoL EQ5D)” value (0.6 mg daily oral)?
Answer: Its value is “improves the quality of life”.

Question: And the “Severe relapses (requiring hospitalization or intravenous steroid treatment)” value (0.6 mg daily oral)?
Answer: Its value is “reduces the rate of severe relapses or the severity of relapses”.

Question: What about the Adverse effects [1] of the same molecule?
Answer: The Adverse effects was “fewer adverse effects, less severe adverse effects”.

Question: What about the “Safety and tolerability profile” value [1] of the same molecule?
Answer: The value was “favorable safety and tolerability profile”.

Question: And the “Number of confirmed relapses” value (0.6 mg daily oral, vs placebo and Avonex arm)?
Answer: The value was “reduces the number of confirmed relapses”.
